pIC50: −log10 of the molar value.
Tests used:
SGLT2 = biological target: T1, SGLT2 (Homo sapiens, UniProt P31639); assay: SGLT2 activity measurement: 14C-AMG uptake in BHK cells transfected with SGLT2; assay type: cell-based; conditions: AMG 2 mM, 37° C., 90 min
T1 construct: expressed in transfected cells
T1 sequence (P31639 1-672): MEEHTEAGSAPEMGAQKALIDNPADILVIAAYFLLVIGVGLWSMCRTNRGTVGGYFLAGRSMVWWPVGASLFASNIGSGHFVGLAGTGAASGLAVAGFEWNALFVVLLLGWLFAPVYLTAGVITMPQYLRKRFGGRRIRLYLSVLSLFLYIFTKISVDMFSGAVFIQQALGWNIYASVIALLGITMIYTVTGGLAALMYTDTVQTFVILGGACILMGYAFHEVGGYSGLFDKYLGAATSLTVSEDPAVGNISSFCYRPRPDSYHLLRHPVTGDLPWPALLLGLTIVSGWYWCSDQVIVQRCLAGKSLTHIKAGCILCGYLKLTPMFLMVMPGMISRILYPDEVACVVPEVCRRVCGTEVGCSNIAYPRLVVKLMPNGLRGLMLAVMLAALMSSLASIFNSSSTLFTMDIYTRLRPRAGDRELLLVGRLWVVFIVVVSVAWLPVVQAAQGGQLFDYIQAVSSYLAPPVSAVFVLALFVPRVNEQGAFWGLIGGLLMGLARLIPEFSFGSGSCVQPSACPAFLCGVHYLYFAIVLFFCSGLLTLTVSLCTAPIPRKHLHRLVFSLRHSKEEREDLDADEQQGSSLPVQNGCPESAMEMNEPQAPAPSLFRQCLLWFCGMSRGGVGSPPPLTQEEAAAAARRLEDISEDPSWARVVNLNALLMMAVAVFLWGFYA
Text: (§1) The compounds can be tested on their SGLT inhibition properties by means of BHK cells expressing SGLT1 and SGLT2. The production of the cells and the testing can be carried out as described below.
To construct the SGLT2 expression vector (KL224), the SLC5A2 gene (homologous to NM_003041) was amplified from a cDNA library using standard PCR technology and cloned over NheI/XhoI sites into PCI-neo expression vector (Promega) containing neomycin as a selection marker. In this vector, transcription used the enhancer/promoter of human cytomegalovirus and the SV40 polyadenylation signal.
(§2) The final vector KL224 together with an additional vector containing a dihydrofolate reductase gene as a selection marker was introduced into cells. Transfection into BHK21 cells (ATCC CCL-10), cultivated in DMEM medium (GIBCO/BRL), supplemented with 10% foetal calf serum (FCS) and 20 mM glutamine, was carried out using calcium phosphate transfections according to Graham, F. L. and van der Ebb, A. J. (1973), Virology 52: 456 with 5-20 μg of uncut plasmids for 10^7 cells. Stable transfectants were selected in medium containing 1 mg/ml of G418 (GIBCO/BRL) and 20-5000 nM methotrexate as final concentration, where only cells which expressed the neomycin gene and overexpressed the dhfr gene were able to grow. After growth for 2-3 weeks, the cells were cloned (0.5 cells/well) and the clones were investigated for SGLT expression in the radioactive uptake assay.
Principally, uptake of ^14C-α-methyl-D-glucopyranoside (AMG) in, for example, Xenopus oocytes injected with the corresponding cRNA has been described (for example Wen-Sen Lee et al. (1994), J. Biol. Chem. 269, 12032-12039; Guofeng You et al. (1995), J. Biol. Chem. 270, 29365-29371).
(§3) A 96-well cell-based assay was developed and adapted to HTS requirements:
(§4) BHK cells (transfected with SGLT1 or SGLT2) were seeded into 96-well microtitre plates (Cultureplates, Perkin Elmer). After at least 24 h, medium was removed and the cell layer was washed with assay buffer (140 mM NaCl, 2 mM KCl, 1 mM CaCl2, 1 mM MgCl2, 10 mM HEPES, 5 mM Tris, adjusted with 1 M KOH to pH 7.4). After addition of 40 μl of assay buffer, 50 μl of AMG (50 μM for SGLT1 and 2 mM for SGLT2) in the presence or absence of compounds, the cells were incubated in a total volume of 100 μl at 37° C. for 90 min. Supernatant was removed by suction and discarded. The cells were washed and lysed by addition of 50 μl water. After 10 minutes at room temperature 200 μl Microscint 40 (Perkin Elmer) were added. The radioactivity was counted in a Topcount microplate scintillation counter (Perkin Elmer). The non-specific uptake was determined in sodium-free assay buffer (266 mM sucrose, 2 mM KCl, 1 mM CaCl2, 1 mM MgCl2, 10 mM HEPES, 5 mM Tris, adjusted with 1 M KOH to pH 7.4).

SGLT1 = biological target: T2, SGLT1 (Homo sapiens, UniProt P13866); assay: SGLT1 activity measurement: 14C-AMG uptake in BHK cells transfected with SGLT1; assay type: cell-based; conditions: AMG 50 μM, 37° C., 90 min
T2 construct: expressed in transfected cells
T2 sequence (P13866 1-664): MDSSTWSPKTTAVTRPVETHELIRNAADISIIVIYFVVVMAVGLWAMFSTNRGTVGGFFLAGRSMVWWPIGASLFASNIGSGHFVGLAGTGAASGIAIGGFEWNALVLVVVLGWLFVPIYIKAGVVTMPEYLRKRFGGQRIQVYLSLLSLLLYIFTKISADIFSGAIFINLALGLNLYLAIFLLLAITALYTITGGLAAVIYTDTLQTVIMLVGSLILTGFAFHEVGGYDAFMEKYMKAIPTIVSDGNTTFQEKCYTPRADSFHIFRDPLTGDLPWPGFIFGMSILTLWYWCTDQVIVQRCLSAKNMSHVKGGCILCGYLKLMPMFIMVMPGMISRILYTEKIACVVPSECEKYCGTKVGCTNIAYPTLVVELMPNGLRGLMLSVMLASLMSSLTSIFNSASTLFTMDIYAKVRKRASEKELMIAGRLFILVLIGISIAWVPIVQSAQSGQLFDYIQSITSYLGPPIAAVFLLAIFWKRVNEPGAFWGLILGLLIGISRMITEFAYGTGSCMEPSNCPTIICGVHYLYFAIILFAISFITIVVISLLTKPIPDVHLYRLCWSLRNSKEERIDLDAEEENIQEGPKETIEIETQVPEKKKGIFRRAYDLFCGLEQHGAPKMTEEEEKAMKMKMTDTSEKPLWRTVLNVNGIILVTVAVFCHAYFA
Text: as §1
To construct the SGLT1 expression vector (KL225), the SLC5A1 gene (homologous to NM_000343) was amplified from a cDNA library using standard PCR technology and cloned over NheI/XhoI sites into pcDNA3.1 expression vector (Invitrogen) containing neomycin as a selection marker. In this vector, transcription uses the enhancer/promoter of human cytomegalovirus.
as §2, with “KL225” for “KL224”, “assay. […]” for “assay.”
as §3, §4

Row | pIC50 (SGLT2) | pIC50 (SGLT1) | Compound
1 | 6.00 to 8.00 | < 5.00 | Cc1cc(C)c(-c2nc3ccccn3c2Nc2c(C)cccc2C)c(OCC(N)=O)c1 [Compound A168, 2-[2-(Aminocarbonylmethoxy)-4,6-dimethyl-phenyl]-3-(2,6-dimethylphenylamino)imidazo-[1,2-a]pyridine]
2 | 6.00 to 8.00 | 5.00 to 6.00 | Cc1cc(C)c(-c2nc3ccc(F)cn3c2Nc2c(C)cccc2C)c(OCC(N)=O)c1 [Compound A169, 2-[2-(Aminocarbonylmethoxy)-4,6-dimethyl-phenyl]-3-(2,6-dimethylphenylamino)-6-fluoro-imidazo[1,2-a]pyridine]
3 | 6.00 to 8.00 | < 5.00 | COc1cc(C)c(-c2nc3ccccn3c2Nc2c(C)cccc2C)c(OCC(N)=O)c1 [Compound A172, 2-[2-(Aminocarbonylmethoxy)-4-methoxy-6-methylphenyl]-3-(2,6-dimethylphenylamino)-imidazo[1,2-a]pyridine]
4 | 6.00 to 8.00 | < 5.00 | CCc1cccc(C)c1Nc1c(-c2ccccc2OCC(N)=O)nc2ccc(F)cn12 [Compound A174, 2-[2-(Aminocarbonylmethoxy)phenyl]-3-(2-methyl-6-ethylphenylamino)-6-fluoroimidazo-[1,2-a]pyridine]
5 | 5.00 to 6.00 | < 5.00 | Cc1cccc(C)c1Nc1c(-c2c(O)cccc2OCC(N)=O)nc2ccccn12 [Compound A176, 2-[2-(Aminocarbonylmethoxy)-6-hydroxyphenyl]-3-(2,6-dimethylphenylamino)imidazo[1,2-a]-pyridine]

The next lines start with the molecule.

Row | Compound | pIC50 (SGLT2) | pIC50 (SGLT1)
6 | COc1ccc(-c2nc3ccccn3c2Nc2c(C)cccc2Cl)c(OCC(N)=O)c1 [Compound A15, 2-[2-(Aminocarbonylmethoxy)-4-methoxy-phenyl]-3-(2-chloro-6-methylphenylamino)-imidazo[1,2-a]pyridine] | 6.00 to 8.00 | 5.00 to 6.00
7 | COc1ccc(-c2nc3ccccn3c2Nc2c(Cl)cccc2Cl)c(OCC(N)=O)c1 [Compound A16, 2-[2-(Aminocarbonylmethoxy)-4-methoxy-phenyl]-3-(2,6-dichlorophenylamino)imidazo-[1,2-a]pyridine] | 6.00 to 8.00 | 5.00 to 6.00
8 | Cc1ccc(-c2nc3ccccn3c2Nc2c(C)cccc2C)c(OCC(N)=O)c1 [Compound A17, 2-[2-(Aminocarbonylmethoxy)-4-methylphenyl]-3-(2,6-dimethylphenylamino)-imidazo[1,2-a]-pyridine] | 6.00 to 8.00 | < 5.00
9 | CCc1cc(O)cc(OCC(N)=O)c1-c1nc2ccc(F)cn2c1Nc1c(C)cccc1C [Compound A102, 2-[2-(Aminocarbonylmethoxy)-6-ethyl-4-hydroxy-phenyl]-3-(2,6-dimethylphenylamino)-6-fluoro-imidazo[1,2-a]pyridine] | 6.00 to 8.00 | 5.00 to 6.00
10 | CCc1cc(OC2CCCCO2)cc(OCC(N)=O)c1-c1nc2ccccn2c1Nc1c(C)cccc1C (centres unmarked) [Compound A166, 2-[2-(Aminocarbonylmethoxy)-4-(tetra-hydropyran-2-yloxy)-6-ethylphenyl]-3-(2,6-dimethylphenylamino)imidazo[1,2-a]pyridine] | 6.00 to 8.00 | < 5.00
11 | CCc1cc(OCC(N)=O)cc(OCC(N)=O)c1-c1nc2ccccn2c1Nc1c(C)cccc1C [Compound A167, 2-[2-(Aminocarbonylmethoxy)-4-(amino-carbonylmethoxy)-6-ethylphenyl]-3-(2,6-dimethylphenylamino)imidazo[1,2-a]pyridine] | 6.00 to 8.00 | < 5.00
12 | Cc1cccc(C)c1Nc1c(-c2c(C)cc(OCC(N)=O)cc2OCC(N)=O)nc2ccccn12 [Compound A170, 2-[2-(Aminocarbonylmethoxy)-4-(amino-carbonylmethoxy)-6-methylphenyl]-3-(2,6-dimethylphenylamino)imidazo[1,2-a]pyridine] | 6.00 to 8.00 | 5.00 to 6.00
13 | Cc1cccc(C)c1Nc1c(-c2c(C)cc(O)cc2OCC(N)=O)nc2ccccn12 [Compound A171, 2-[2-(Aminocarbonylmethoxy)-4-hydroxy-6-methylphenyl]-3-(2,6-dimethylphenylamino)-imidazo[1,2-a]pyridine] | 6.00 to 8.00 | < 5.00
14 | Cc1cccc(C)c1Nc1c(-c2c(C)cc(OCc3ccccc3)cc2OCC(N)=O)nc2ccccn12 [Compound A173, 2-[2-(Aminocarbonylmethoxy)-4-benzyloxy-6-methylphenyl]-3-(2,6-dimethylphenylamino)-imidazo[1,2-a]pyridine] | < 5.00 | < 5.00
15 | Cc1cccc(C)c1Nc1c(-c2c(O)cccc2OCC(N)=O)nc2ccc(F)cn12 [Compound A175, 2-[2-(Aminocarbonylmethoxy)-6-hydroxyphenyl]-3-(2,6-dimethylphenylamino)-6-fluoroimidazo-[1,2-a]pyridine] | 6.00 to 8.00 | < 5.00
16 | Cc1cccc(C)c1Nc1c(-c2c(C)cc(OC3CCCCO3)cc2OCC(N)=O)nc2ccc(F)cn12 (centres unmarked) [Compound A177, 2-[2-(Aminocarbonylmethoxy)-4-(tetra-hydropyran-2-yloxy)-6-methylphenyl]-3-(2,6-dimethylphenylamino)-6-fluoroimidazo[1,2-a]-pyridine] | 6.00 to 8.00 | < 5.00
